Measurements as given in ChEMBL document CHEMBL4004849, “Tetrazolylmethyl quinolines: Design, docking studies, synthesis, anticancer and antifungal analyses” (2017).
Converted amounts (≈) assume the structure as drawn. The source made the active and inactive calls. The rule behind the calls is not given here.

What follows are compounds tested on OVCAR-5 (assay: Growth inhibition of human OVCAR5 cells at 10^-5 M incubated for 48 hrs by sulforhodamine B assay relative to control). Conditions: not given.
Type: functional
In the case of `Clc1nc2ccccc2cc1Cn1nnnc1Cc1ccccc1`, the “growth inhibition (GI)” value is reported as “Active”.

The compounds below were run on TK-10 (assay: Growth inhibition of human TK10 cells at 10^-5 M incubated for 48 hrs by sulforhodamine B assay relative to control). Conditions: not given.
Type: functional
For `Clc1nc2ccccc2cc1Cn1nnnc1Cc1ccccc1`, the “growth inhibition (GI)” value was “Active”.

What follows are compounds tested on OVCAR-8 (assay: Growth inhibition of human OVCAR8 cells at 10^-5 M incubated for 48 hrs by sulforhodamine B assay relative to control). Conditions: not given.
Type: functional
For `Clc1nc2ccccc2cc1Cn1nnnc1Cc1ccccc1`, the “growth inhibition (GI)” value was “Active”.

What follows are compounds tested on MOLT-4 (assay: Growth inhibition of human MOLT4 cells at 10^-5 M incubated for 48 hrs by sulforhodamine B assay relative to control). Conditions: not given.
Type: functional
In the case of `Clc1nc2ccccc2cc1Cn1nnnc1Cc1ccccc1`, the “growth inhibition (GI)” value is reported as “Active”.

Each compound was assayed on MCF7 (assay: Growth inhibition of human MCF7 cells at 10^-5 M incubated for 48 hrs by sulforhodamine B assay relative to control). Conditions: not given.
Type: functional
`Clc1nc2ccccc2cc1Cn1nnnc1Cc1ccccc1` was tested, and the “growth inhibition (GI)” value was “Active”.

What follows are compounds tested on HCT-15 (assay: Growth inhibition of human HCT15 cells at 10^-5 M incubated for 48 hrs by sulforhodamine B assay relative to control). Conditions: not given.
Type: functional
In the case of `Clc1nc2ccccc2cc1Cn1nnnc1Cc1ccccc1`, the “growth inhibition (GI)” value is reported as “Active”.

Each compound was assayed on SK-MEL-5 (assay: Growth inhibition of human SK-MEL-5 cells at 10^-5 M incubated for 48 hrs by sulforhodamine B assay relative to control). Conditions: not given.
Type: functional
For `Clc1nc2ccccc2cc1Cn1nnnc1Cc1ccccc1`, the “growth inhibition (GI)” value was “Active”.

Each compound was assayed on Candida albicans (assay: Antifungal activity against Candida albicans after 24 hrs by serial dilution method). Conditions: not given.
Type: functional
In the case of `Clc1nc2ccccc2cc1Cn1nnnc1Cc1ccccc1`, the MIC is reported as 25 µg/mL (≈ 74.4 µM).

Each compound was assayed on KM12 (assay: Growth inhibition of human KM12 cells at 10^-5 M incubated for 48 hrs by sulforhodamine B assay relative to control). Conditions: not given.
Type: functional
In the case of `Clc1nc2ccccc2cc1Cn1nnnc1Cc1ccccc1`, the “growth inhibition (GI)” value is reported as “Active”.

What follows are compounds tested on HCC 2998 (assay: Growth inhibition of human HCC2998 cells at 10^-5 M incubated for 48 hrs by sulforhodamine B assay relative to control). Conditions: not given.
Type: functional
For `Clc1nc2ccccc2cc1Cn1nnnc1Cc1ccccc1`, the “growth inhibition (GI)” value was “Active”.

What follows are compounds tested on EKVX (assay: Growth inhibition of human EKVX cells at 10^-5 M incubated for 48 hrs by sulforhodamine B assay relative to control). Conditions: not given.
Type: functional
For `Clc1nc2ccccc2cc1Cn1nnnc1Cc1ccccc1`, the “growth inhibition (GI)” value was “Active”.

The compounds below were run on HT-29 (assay: Growth inhibition of human HT-29 cells at 10^-5 M incubated for 48 hrs by sulforhodamine B assay relative to control). Conditions: not given.
Type: functional
In the case of `Clc1nc2ccccc2cc1Cn1nnnc1Cc1ccccc1`, the “growth inhibition (GI)” value is reported as “Active”.

What follows are compounds tested on UO-31 (assay: Growth inhibition of human UO31 cells at 10^-5 M incubated for 48 hrs by sulforhodamine B assay relative to control). Conditions: not given.
Type: functional
For `Clc1nc2ccccc2cc1Cn1nnnc1Cc1ccccc1`, the “growth inhibition (GI)” value was “Active”.

What follows are compounds tested on M14 (assay: Growth inhibition of human M14 cells at 10^-5 M incubated for 48 hrs by sulforhodamine B assay relative to control). Conditions: not given.
Type: functional
In the case of `Clc1nc2ccccc2cc1Cn1nnnc1Cc1ccccc1`, the “growth inhibition (GI)” value is reported as “Active”.

Each compound was assayed on NCI-H23 (assay: Growth inhibition of human NCI-H23 cells at 10^-5 M incubated for 48 hrs by sulforhodamine B assay relative to control). Conditions: not given.
Type: functional
With `Clc1nc2ccccc2cc1Cn1nnnc1Cc1ccccc1` the “growth inhibition (GI)” value was “Active”.

The compounds below were run on Aspergillus fumigatus (assay: Antifungal activity against Aspergillus fumigatus after 24 hrs by serial dilution method). Conditions: not given.
Type: functional
With `Clc1nc2ccccc2cc1Cn1nnnc1Cc1ccccc1` the MIC was 50 µg/mL (≈ 149 µM).

What follows are compounds tested on 786-0 (assay: Growth inhibition of human 786-0 cells at 10^-5 M incubated for 48 hrs by sulforhodamine B assay relative to control). Conditions: not given.
Type: functional
In the case of `Clc1nc2ccccc2cc1Cn1nnnc1Cc1ccccc1`, the “growth inhibition (GI)” value is reported as “Active”.

What follows are compounds tested on SW-620 (assay: Growth inhibition of human SW620 cells at 10^-5 M incubated for 48 hrs by sulforhodamine B assay relative to control). Conditions: not given.
Type: functional
With `Clc1nc2ccccc2cc1Cn1nnnc1Cc1ccccc1` the “growth inhibition (GI)” value was “Active”.

The compounds below were run on BT-549 (assay: Growth inhibition of human BT549 cells at 10^-5 M incubated for 48 hrs by sulforhodamine B assay relative to control). Conditions: not given.
Type: functional
`Clc1nc2ccccc2cc1Cn1nnnc1Cc1ccccc1` was tested, and the “growth inhibition (GI)” value was “Active”.

Each compound was assayed on Hs-578T (assay: Growth inhibition of human Hs 578T cells at 10^-5 M incubated for 48 hrs by sulforhodamine B assay relative to control). Conditions: not given.
Type: functional
`Clc1nc2ccccc2cc1Cn1nnnc1Cc1ccccc1` was tested, and the “growth inhibition (GI)” value was “Active”.

Each compound was assayed on SNB-75 (assay: Growth inhibition of human SNB75 cells at 10^-5 M incubated for 48 hrs by sulforhodamine B assay relative to control). Conditions: not given.
Type: functional
With `Clc1nc2ccccc2cc1Cn1nnnc1Cc1ccccc1` the “growth inhibition (GI)” value was “Active”.

The compounds below were run on K562 (assay: Growth inhibition of human K562 cells at 10^-5 M incubated for 48 hrs by sulforhodamine B assay relative to control). Conditions: not given.
Type: functional
In the case of `Clc1nc2ccccc2cc1Cn1nnnc1Cc1ccccc1`, the “growth inhibition (GI)” value is reported as “Active”.

What follows are compounds tested on A549 (assay: Growth inhibition of human A549/ATCC cells at 10^-5 M incubated for 48 hrs by sulforhodamine B assay relative to control). Conditions: not given.
Type: functional
In the case of `Clc1nc2ccccc2cc1Cn1nnnc1Cc1ccccc1`, the “growth inhibition (GI)” value is reported as “Active”.

The compounds below were run on COLO 205 (assay: Growth inhibition of human COLO205 cells at 10^-5 M incubated for 48 hrs by sulforhodamine B assay relative to control). Conditions: not given.
Type: functional
In the case of `Clc1nc2ccccc2cc1Cn1nnnc1Cc1ccccc1`, the “growth inhibition (GI)” value is reported as “Active”.

What follows are compounds tested on RXF 393 (assay: Growth inhibition of human RXF393 cells at 10^-5 M incubated for 48 hrs by sulforhodamine B assay relative to control). Conditions: not given.
Type: functional
With `Clc1nc2ccccc2cc1Cn1nnnc1Cc1ccccc1` the “growth inhibition (GI)” value was “Active”.

What follows are compounds tested on U-251 (assay: Growth inhibition of human U251 cells at 10^-5 M incubated for 48 hrs by sulforhodamine B assay relative to control). Conditions: not given.
Type: functional
`Clc1nc2ccccc2cc1Cn1nnnc1Cc1ccccc1` was tested, and the “growth inhibition (GI)” value was “Active”.

Each compound was assayed on SK-MEL-28 (assay: Growth inhibition of human SK-MEL-28 cells at 10^-5 M incubated for 48 hrs by sulforhodamine B assay relative to control). Conditions: not given.
Type: functional
With `Clc1nc2ccccc2cc1Cn1nnnc1Cc1ccccc1` the “growth inhibition (GI)” value was “Active”.

These compounds were tested on SNB-19 (assay: Growth inhibition of human SNB19 cells at 10^-5 M incubated for 48 hrs by sulforhodamine B assay relative to control). Conditions: not given.
Type: functional
`Clc1nc2ccccc2cc1Cn1nnnc1Cc1ccccc1` was tested, and the “growth inhibition (GI)” value was “Active”.

Each compound was assayed on SR (assay: Growth inhibition of human SR cells at 10^-5 M incubated for 48 hrs by sulforhodamine B assay relative to control). Conditions: not given.
Type: functional
In the case of `Clc1nc2ccccc2cc1Cn1nnnc1Cc1ccccc1`, the “growth inhibition (GI)” value is reported as “Active”.

Each compound was assayed on UACC-62 (assay: Growth inhibition of human UACC62 cells at 10^-5 M incubated for 48 hrs by sulforhodamine B assay relative to control). Conditions: not given.
Type: functional
With `Clc1nc2ccccc2cc1Cn1nnnc1Cc1ccccc1` the “growth inhibition (GI)” value was “Active”.

The compounds below were run on T47D (assay: Growth inhibition of human T47D cells at 10^-5 M incubated for 48 hrs by sulforhodamine B assay relative to control). Conditions: not given.
Type: functional
With `Clc1nc2ccccc2cc1Cn1nnnc1Cc1ccccc1` the “growth inhibition (GI)” value was “Active”.

These compounds were tested on ACHN (assay: Growth inhibition of human ACHN cells at 10^-5 M incubated for 48 hrs by sulforhodamine B assay relative to control). Conditions: not given.
Type: functional
`Clc1nc2ccccc2cc1Cn1nnnc1Cc1ccccc1` was tested, and the “growth inhibition (GI)” value was “Active”.

These compounds were tested on LOX IMVI (assay: Growth inhibition of human LOXIMVI cells at 10^-5 M incubated for 48 hrs by sulforhodamine B assay relative to control). Conditions: not given.
Type: functional
With `Clc1nc2ccccc2cc1Cn1nnnc1Cc1ccccc1` the “growth inhibition (GI)” value was “Active”.

What follows are compounds tested on SF-295 (assay: Growth inhibition of human SF295 cells at 10^-5 M incubated for 48 hrs by sulforhodamine B assay relative to control). Conditions: not given.
Type: functional
For `Clc1nc2ccccc2cc1Cn1nnnc1Cc1ccccc1`, the “growth inhibition (GI)” value was “Active”.

The compounds below were run on NCI-H226 (assay: Growth inhibition of human NCI-H226 cells at 10^-5 M incubated for 48 hrs by sulforhodamine B assay relative to control). Conditions: not given.
Type: functional
`Clc1nc2ccccc2cc1Cn1nnnc1Cc1ccccc1` was tested, and the “growth inhibition (GI)” value was “Active”.

Each compound was assayed on SN12C (assay: Growth inhibition of human SN12C cells at 10^-5 M incubated for 48 hrs by sulforhodamine B assay relative to control). Conditions: not given.
Type: functional
`Clc1nc2ccccc2cc1Cn1nnnc1Cc1ccccc1` was tested, and the “growth inhibition (GI)” value was “Active”.

What follows are compounds tested on MDA-MB-231 (assay: Growth inhibition of human MDA-MB-231/ATCC cells at 10^-5 M incubated for 48 hrs by sulforhodamine B assay relative to control). Conditions: not given.
Type: functional
`Clc1nc2ccccc2cc1Cn1nnnc1Cc1ccccc1` was tested, and the “growth inhibition (GI)” value was “Active”.

What follows are compounds tested on SK-OV-3 (assay: Growth inhibition of human SKOV3 cells at 10^-5 M incubated for 48 hrs by sulforhodamine B assay relative to control). Conditions: not given.
Type: functional
`Clc1nc2ccccc2cc1Cn1nnnc1Cc1ccccc1` was tested, and the “growth inhibition (GI)” value was “Active”.

Each compound was assayed on HL-60(TB) (assay: Growth inhibition of human HL-60(TB) cells at 10^-5 M incubated for 48 hrs by sulforhodamine B assay relative to control). Conditions: not given.
Type: functional
In the case of `Clc1nc2ccccc2cc1Cn1nnnc1Cc1ccccc1`, the “growth inhibition (GI)” value is reported as “Active”.

The compounds below were run on OVCAR-3 (assay: Growth inhibition of human OVCAR3 cells at 10^-5 M incubated for 48 hrs by sulforhodamine B assay relative to control). Conditions: not given.
Type: functional
For `Clc1nc2ccccc2cc1Cn1nnnc1Cc1ccccc1`, the “growth inhibition (GI)” value was “Active”.

These compounds were tested on OVCAR-4 (assay: Growth inhibition of human OVCAR4 cells at 10^-5 M incubated for 48 hrs by sulforhodamine B assay relative to control). Conditions: not given.
Type: functional
For `Clc1nc2ccccc2cc1Cn1nnnc1Cc1ccccc1`, the “growth inhibition (GI)” value was “Active”.

The compounds below were run on Aspergillus fumigatus (assay: Antifungal activity against Aspergillus fumigatus at 100 ug/ml by disc diffusion method). Conditions: read-out: IZ.
Type: functional
For `Clc1nc2ccccc2cc1Cn1nnnc1Cc1ccccc1`, the zone of inhibition at 100 µg/mL was 14 mm.

What follows are compounds tested on SF-268 (assay: Growth inhibition of human SF268 cells at 10^-5 M incubated for 48 hrs by sulforhodamine B assay relative to control). Conditions: not given.
Type: functional
`Clc1nc2ccccc2cc1Cn1nnnc1Cc1ccccc1` was tested, and the “growth inhibition (GI)” value was “Active”.

What follows are compounds tested on SF-539 (assay: Growth inhibition of human SF539 cells at 10^-5 M incubated for 48 hrs by sulforhodamine B assay relative to control). Conditions: not given.
Type: functional
In the case of `Clc1nc2ccccc2cc1Cn1nnnc1Cc1ccccc1`, the “growth inhibition (GI)” value is reported as “Active”.

These compounds were tested on UACC-257 (assay: Growth inhibition of human UACC257 cells at 10^-5 M incubated for 48 hrs by sulforhodamine B assay relative to control). Conditions: not given.
Type: functional
`Clc1nc2ccccc2cc1Cn1nnnc1Cc1ccccc1` was tested, and the “growth inhibition (GI)” value was “Active”.
